This note sets out measurements from patent publication US12653800B2, “Small molecule inhibitors of TLR2 signaling” (University of Maryland, Baltimore, priority 2015, dated 2026).

Molecules are shown by their SMILES. Entries after “also recorded” stand apart in the source; their conditions may differ.

In series [1] the test system is HEK-TLR2 stable transfectants. Put plainly: LDH release cytotoxicity assay. It is filed as cell-based, human. The following applies: C29 10 μM or 50 μM. The method, then:
FIG. 7. C29 is not cytotoxic to HEK-TLR2 stable transfectants. Cells were pretreated for 1 hr with media, vehicle (65 μM NaOH), or C29 (10 μM or 50 μM) and then stimulated with P3C (200 ng/mL), P2C (200 ng/mL), or hTNF-α (300 ng/mL) for 1 hr in the presence of media, vehicle, or C29. Supernatants of cell cultures were collected and analyzed for LDH release as a measure of cell cytotoxicity with Triton X-lysed cells serving as the positive control. LDH release is representative of 1 of 2 independent experiments carried out in duplicate.
Cellular cytotoxicity was determined by measuring lactate dehydrogenase (LDH) activity released in the media after treatment with TLR agonist or TNF-α in the presence of media, vehicle (NaOH), or C29 using the CytoTox 96 nonradioactive cytotoxicity assay (Promega, Madison, WI) and quantified by measuring wavelength absorbance at 490 nm. Treatment of cells with Triton X-100 served as the positive control.
A general note: LDH leaks from cells whose membrane has failed.

The next series deals with TLR2 (Mus musculus, UniProt Q9QUN7). As to the kind of experiment: Cytokine mRNA in murine peritoneal macrophages (PEC) stimulated with bacterial TLR2 agonists. It is filed as cell-based. The conditions noted are these: C29 50 μM.
Chain of TLR2 (Q9QUN7 25-784): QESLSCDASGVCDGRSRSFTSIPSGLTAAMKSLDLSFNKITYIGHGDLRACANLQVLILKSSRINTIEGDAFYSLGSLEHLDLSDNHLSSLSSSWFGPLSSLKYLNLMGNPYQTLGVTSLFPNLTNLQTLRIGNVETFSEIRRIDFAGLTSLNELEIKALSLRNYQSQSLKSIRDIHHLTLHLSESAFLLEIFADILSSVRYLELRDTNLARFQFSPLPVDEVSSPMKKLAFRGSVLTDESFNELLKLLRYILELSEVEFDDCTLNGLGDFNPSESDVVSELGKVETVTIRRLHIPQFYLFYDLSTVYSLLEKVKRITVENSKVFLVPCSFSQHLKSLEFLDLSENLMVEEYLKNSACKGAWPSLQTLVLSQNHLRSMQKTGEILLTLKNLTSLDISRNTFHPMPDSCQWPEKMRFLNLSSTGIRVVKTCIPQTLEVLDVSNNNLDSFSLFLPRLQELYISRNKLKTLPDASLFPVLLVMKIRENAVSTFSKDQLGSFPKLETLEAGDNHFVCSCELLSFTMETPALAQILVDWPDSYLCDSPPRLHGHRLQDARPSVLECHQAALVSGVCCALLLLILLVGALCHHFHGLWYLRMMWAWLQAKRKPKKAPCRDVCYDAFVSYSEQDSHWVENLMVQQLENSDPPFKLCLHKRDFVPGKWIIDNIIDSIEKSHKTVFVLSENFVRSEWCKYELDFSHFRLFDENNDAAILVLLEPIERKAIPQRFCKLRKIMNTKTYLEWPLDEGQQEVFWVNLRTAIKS
The subject of series [2] is MAPK and NF-κβ activation. Put plainly: Western analysis of MAPK and NF-κβ activation in murine peritoneal macrophages. The series is classed as cell-based. The following applies: C29 50 μM, P3C 50 ng/mL. Here is the method: FIG. 2. C29 inhibits ligand-induced interaction of TLR2 with MyD88 and blocks MAPK and NF-κβ activation. (A) THP-1 cells were cultured in the presence of PMA (20 ng/mL) for 24 hrs and washed twice in media. THP-1 human monocytes were pretreated with media, vehicle (195 μM NaOH), or C29 (150 μM) for 1 hr and treated with P3C (50 ng/mL) in the presence of media, vehicle, or C29 for 15 or 30 min. Co-immunoprecipitation (IP) was carried out using anti-MyD88 antibody and Western analysis (IB) using whole cell lysates. (B) Densitometry analysis (mean±SEM) of 3 independent experiments as shown in (A). (C) Murine peritoneal macrophages were pretreated for 1 hr with media, vehicle (65 μM NaOH), or C29 (50 μM) and treated with P3C (50 ng/mL) for 5-30 min in the presence of media, vehicle, or C29. IB was performed using whole cell lysates and antibodies directed against the signaling intermediates indicated. β-actin was probed as a loading protein. Panel A is representative of 3 independent experiments and panel B is the mean±SEM from 3 independent experiments (*, p≤0.05). Panel B is representative of 2 independent experiments.
Cells were treated and washed once with 1×PBS and lysed using buffer containing 20 mM HEPES (pH 7.4), 150 mM NaCl, 1 mM EDTA, 1 mM EGTA (pH 8.0), 50 mM NaF, 0.5% Triton X-100, 1 mM Na3VO4, 1 mM DTT, 1 mM PMSF, and protease inhibitor (Roche Applied Science, Indianapolis, IN). Cells were harvested and protein was quantified using BCA Protein assay reagents (Thermo Scientific/Pierce, Rockford, IL). Whole cell lysates (500 μg/500 μL) were precleared using 10 μL of pre-washed Protein G Agarose (Roche Applied Science, Indianapolis, IN) for 2 hours at 4° C. with rotation. Precleared samples were incubated with the respective antibody and rotated overnight at 4° C. Pre-washed Protein G (40 μL) was added to each sample and rotated for 4 h at 4° C. Beads were washed three times in lysis buffer (without protease inhibitor) and finally in complete lysis buffer. Beads were resuspended in 2× Laemmli Sample Buffer and boiled for 10 min. […]

A further series concerns the target TLR2/1 (Homo sapiens, UniProt O60603). Put plainly: IL-1β mRNA in THP-1 cells stimulated with TLR2/1 agonists (P3C, S. aureus LTA). The series is classed as cell-based. The arrangement: expressed in transfected cells. The following applies: C29 50, 100 or 200 μM.
Another series concerns the target TLR2/6 (Homo sapiens, UniProt O60603). As to the kind of experiment: IL-1β mRNA in THP-1 cells stimulated with TLR2/6 agonists (P2C, zymosan). The series is classed as cell-based. The arrangement: expressed in transfected cells. The following applies: C29 50, 100 or 200 μM.
Setting [3] is: murine macrophages, MOI=0.7, 4 hrs.
Where [4] appears, read: primary murine macrophages (PEC), MOI=50, 4 hrs.

Chain of TLR2/1 (O60603 21-784): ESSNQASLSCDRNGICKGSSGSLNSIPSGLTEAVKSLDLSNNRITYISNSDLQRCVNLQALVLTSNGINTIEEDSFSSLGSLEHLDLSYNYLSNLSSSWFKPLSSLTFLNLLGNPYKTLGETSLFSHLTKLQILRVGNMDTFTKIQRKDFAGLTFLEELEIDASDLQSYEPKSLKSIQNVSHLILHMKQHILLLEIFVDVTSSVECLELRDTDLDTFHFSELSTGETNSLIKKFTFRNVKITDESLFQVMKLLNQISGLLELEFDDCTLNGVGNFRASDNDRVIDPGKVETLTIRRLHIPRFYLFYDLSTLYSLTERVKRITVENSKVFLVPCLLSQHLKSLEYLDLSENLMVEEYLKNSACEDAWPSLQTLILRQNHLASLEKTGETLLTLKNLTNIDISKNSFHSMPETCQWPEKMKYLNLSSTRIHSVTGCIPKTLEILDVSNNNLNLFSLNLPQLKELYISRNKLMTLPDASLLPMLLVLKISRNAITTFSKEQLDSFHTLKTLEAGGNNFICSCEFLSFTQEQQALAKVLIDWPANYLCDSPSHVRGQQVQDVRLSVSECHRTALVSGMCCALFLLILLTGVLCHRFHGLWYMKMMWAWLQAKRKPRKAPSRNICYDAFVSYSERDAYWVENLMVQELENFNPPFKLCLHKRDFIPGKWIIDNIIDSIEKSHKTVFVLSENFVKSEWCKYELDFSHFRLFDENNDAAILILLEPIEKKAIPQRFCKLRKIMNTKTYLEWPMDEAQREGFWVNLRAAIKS
Chain of TLR2/6 (O60603 21-784): as above

On to `COc1cccc(/C=N/c2cccc(C(=O)O)c2C)c1O` [Compound C29], for which the “cytotoxicity (LDH release)” value in series [1] is on record as “no effect; also recorded: not cytotoxic”. Also, at TLR2 (setting [3]), the “live S. pneumoniae-induced IL-1β mRNA” value is given as “inhibited” and the “live S. pneumoniae-induced IL-12 p40 mRNA” value is given as “inhibited”. Further, at TLR2 (setting [4]), the “HKSA-mediated IL-1β mRNA” value is reported as “significantly blocked” and the “heat-killed S. pneumoniae (HKSP)-mediated IL-1β mRNA” value is “significantly blocked”. The “P3C-induced NF-κβ activation” value in series [2] (5 to 30 min) is recorded as “reduced NF-κβ activation”. In addition, in series [2] (15 and 30 min), the “P3C-induced degradation of IκBα” value was “prevented P3C-induced degradation of IκBα”. Moreover, the “P3C-induced MAPK activation” value in series [2] (30 min) is reported as “blocked robust MAPK activation”. Further, the “P3C-induced IL-1β gene expression” value at TLR2/1 (P3C 50 ng/mL, 1 h and 4 h) is “inhibited P3C- and P2C-induced IL-1β gene expression significantly”. In addition, the “LTA SA-induced IL-1β mRNA” value at TLR2/1 (S. aureus LTA 1 μg/mL 4 hrs) is “blocked zymosan- and LTA SA-induced IL-1β mRNA dose-dependently”. Moreover, the “P2C-induced IL-1β gene expression” value on TLR2/6 (P2C 50 ng/mL, 1 h and 4 h) was “inhibited P3C- and P2C-induced IL-1β gene expression significantly”. Besides, the “zymosan-induced IL-1β mRNA” value at TLR2/6 (zymosan 10 μg/mL 4 hrs) is “blocked zymosan- and LTA SA-induced IL-1β mRNA dose-dependently”.
